# Experimental data: paper PMC11091117, “A fluorescently-tagged tick kinin neuropeptide triggers peristalsis and labels tick midgut muscles” (Scientific Reports, 2024)
# “Also recorded” adds a separate entry of the source. Where no end group is shown, it is not given here.
# Key:
# [1] = tested on: tick kinin receptor (recombinant R. microplus receptor, CHO-K1 BMLK3 cells); experiment: Cellular end-point fluorescence calcium mobilization assay, BMLK3 cells; assay type: cell-based, Rhipicephalus microplus
# Excerpt: Three peptides were used in this study. These included: 1) the ligand for the endogenous tick kinin receptor from Rhipicephalus sanguineus, Rhisa-kinin 8 peptide of sequence GTGEDQAFSPWGamide (Rhisa-K-8; RK8; of identical sequence to Rhimi-K-8 in Rhipicephalus microplus)[48], 2) the same peptide but fluorescently labeled at the N-terminus with tetramethylrhodamine (TMR) a red fluorescent dye, designated TMR-Rhisa-K-8 (TMR-RK8), and 3) a labeled peptide synthesized with the scrambled sequence of the kinin ligand, designated TMR-Scrambled. The sequence of TMR-RK8 was TMR-C-GTGEDQAFSPWGamide). The TMR-Scrambled kinin (TMR-C-GTQWGPGFEADSamide) served as a negative control for tissue labeling. All peptides were custom-synthesized and purchased from GenScript (Piscataway, NJ, USA) with a purity of ≥ 95% and the cysteine in bold in both sequences was added to attach the label. Experiments were replicated with independently synthesized batches (4 mg each) of labeled and unlabeled peptides, for reproducibility. Unlabeled RK8 was used as a competitive ligand to verify target-specific binding of the labeled TMR-RK8 (see Ligand Competition Assay). For cell assays, the peptide stock solutions (100 µM) were made in 1% dimethyl sulfoxide (DMSO) in Hank’s balanced salt solution (HBSS, Thermo Fisher, Waltham, USA). For fluorescent cell labeling, peptide working solutions (10 µM) were prepared in HBSS from stock solutions. For assays on the midgut, peptides were solubilized and diluted in a tick physiological saline consisting of 140 mM NaCl, 5 mM KCl, 1 mM MgCl2, 5 mM CaCl2, 4 mM NaHCO3, and 5 mM HEPES, pH 7.2[49].
# The tick kinin receptor is stably expressed in the recombinant CHO-K1 cell line designated BMLK3 (Boophilus microplus leucokinin receptor 3) that was constructed and selected as described by Holmes, et al.[47]. The CHO-K1 cells had been obtained from the American Type Culture Collection (ATCC) for transfection with the expression construct. This cell line has been kept in the laboratory since 2003. Cells that were transfected only with an empty plasmid are referred to as “vector-only” (V/O) cells and were used as a negative control. Before all experiments, the BMLK3 cell line or V/O cells were separately cultured in T-75 flasks with selective medium (F-12 K medium containing 10% FBS and 800 μgmL^−1 of G418 sulfate) for one to two passages in a humidified incubator at 37 °C and 5% CO2.
# A fluorescence-based intracellular calcium mobilization end-point assay described by Xiong, et al.[50] was used to confirm the activity of the TMR-labeled RK8 peptide on a cell line expressing the tick kinin receptor. For this, BMLK3 and V/O cells were cultured in F-12 K medium (1% FBS and 400 μgmL^−1- of G418 Sulfate). The cells were seeded in a 96-well plate with 20,000 cells per well and incubated overnight at 37 °C and 5% CO2. The next morning, cells were prepared for the assay following the manufacturer’s instructions for the Fluo-8 Calcium Flux Assay Kit – NoWash (Abcam, Cambridge, United Kingdom). The F-12 K medium in the plate was removed by inverting the plate and gently blotting on paper towels. […] The calcium fluorescence signal was detected by a CLARIOstar (BMG LABTECH, Chicago, IL, United States) plate reader set to read at the fluorescence plate-mode with excitation and emission wavelengths of 490 and 525 nm at 29 °C. Calcium responses were read immediately after the addition of 10 µL of either TMR-RK8, unlabeled RK8, or blank solvent (1% DMSO in HBSS). […]
# [2] = tested on: vector-only (V/O) CHO-K1 cells; experiment: Cellular end-point fluorescence calcium mobilization assay, vector-only control cells; assay type: cell-based; settings: 10 µM peptide, Fluo-8, 29 °C, 60 s, 4 technical replicates
# Excerpt: Three peptides were used in this study. These included: 1) the ligand for the endogenous tick kinin receptor from Rhipicephalus sanguineus, Rhisa-kinin 8 peptide of sequence GTGEDQAFSPWGamide (Rhisa-K-8; RK8; of identical sequence to Rhimi-K-8 in Rhipicephalus microplus)[48], 2) the same peptide but fluorescently labeled at the N-terminus with tetramethylrhodamine (TMR) a red fluorescent dye, designated TMR-Rhisa-K-8 (TMR-RK8), and 3) a labeled peptide synthesized with the scrambled sequence of the kinin ligand, designated TMR-Scrambled. The sequence of TMR-RK8 was TMR-C-GTGEDQAFSPWGamide). The TMR-Scrambled kinin (TMR-C-GTQWGPGFEADSamide) served as a negative control for tissue labeling. […]
# A fluorescence-based intracellular calcium mobilization end-point assay described by Xiong, et al.[50] was used to confirm the activity of the TMR-labeled RK8 peptide on a cell line expressing the tick kinin receptor. […] The calcium fluorescence signal was detected by a CLARIOstar (BMG LABTECH, Chicago, IL, United States) plate reader set to read at the fluorescence plate-mode with excitation and emission wavelengths of 490 and 525 nm at 29 °C. Calcium responses were read immediately after the addition of 10 µL of either TMR-RK8, unlabeled RK8, or blank solvent (1% DMSO in HBSS). […]
# [3] = tested on: tick kinin receptors on midgut muscles; experiment: Ligand competition assay on midgut; assay type: binding, Rhipicephalus sanguineus; settings: TMR-RK8 10 µM 1 min, then unlabeled RK8 100 µM 1 min, tick saline, confocal 20x
# Excerpt: Individual female ticks were immobilized on a Petri dish filled with wax by submerging their legs in melted wax heated with a soldering pencil (Electronic Control Soldering Station EC 1000, Weller, Apex, North Carolina, USA). Females were dissected under physiological saline following the protocol described by Tidwell et al.[51]. The tick was cut along the edge of the scutum/alloscutum using a stainless steel #12 scalpel blade (Integra Miltex, York, PA, USA), after which the scutum was removed with a pair of fine forceps. To expose the midgut for removal, the tracheae, Malpighian tubules, ovaries, rectal sac, and synganglion were removed with fine forceps in that order. The midgut was then carefully removed and placed into 200 µL of fresh tick saline (See Reagents and Peptides) on a single gasketed incubation chamber (500 µL, Size 22 × 40 mm, Electron Microscopy Sciences, Hatfield, PA). […]
# Fluorescently-labeled midgut tissues were imaged using a Leica SP8 inverted confocal microscope. For fluorescence excitation, the 405 nm fixed-wavelength laser was used for DAPI and a white light laser selective for wavelengths between 470 and 670 nm was used for tetramethylrhodamine and phalloidin. […] Images were analyzed and computer-colored using Fiji/ImageJ (National Institutes of Health, Bethesda, MD). […]
# [4] = tested on: R. microplus recombinant receptor; set-up: method as in PMID 31794138; settings: cited from earlier work
substance,measurement,setting,value
"GTGEDQAFSPWG-NH2 [RK8, endogenous ligand of the tick kinin receptor from Rhipicephalus sanguineus, identical to Rhimi-K-8 of R. microplus]",intracellular calcium fluorescence response / receptor activation (in words),"[1]; 10 nM to 10 μM (four concentrations), 1% DMSO in HBSS, Fluo-8, Ex 490/Em 525 nm, 29 °C, read 60 s at 1 s intervals, average raw fluorescence units of 4 technical replicates, simple linear regression",elicited a dose-dependent intracellular calcium fluorescence response
same,"fluorescence units at highest concentration, TMR-RK8 compared with RK8 (in words)","[1]; highest concentration assayed 10 µM, Fluo-8, 4 technical replicates",maximal and similar for the highest concentration assayed of 10 µM
same,calcium fluorescence response of vector-only cells (in words),[2],invariable background fluorescence
same,displacement of TMR-RK8 muscle labeling by unlabeled RK8 (in words),[3],substantial reduction in the fluorescent signal observed on muscles; also recorded: greatly reduced the fluorescent signal of muscles; also recorded: competitive inhibition of fluorescent signal on muscle tissue
same,displacement of TMR-RK8 muscle labeling by unlabeled RK8 (in words),[3]; listed as kinin 8,"competed TMR-RK8, decreasing confocal microscopy signal intensity"
same,activity on the R. microplus recombinant receptor (in words),[4],highly active at the nanomolar level
